In patent publication US20250186454A1, “METHODS FOR TREATING ABERRANT BEHAVIOR AND MOTOR ACTIVITY” (LAPKO INC, dba AFECTA PHARMACEUTICALS, priority 2023, published 2025):

Tests used:
[1] = pharmacokinetic study of equivalent doses by gastric absorption compared to sublingual absorption; format: in vivo
Method: A study of equivalent doses of molindone administered by gastric absorption compared to sublingual absorption. […] Molindone is primarily, if not exclusively, metabolized by the liver (hepatic metabolism). The first metabolite of molindone obtained by liver metabolism is 3-ethyl-2-(hydroxymethyl)-5-[(morpholin-4-yl)methyl]-1,5,6,7tetrahydro-4H-indol-4-one. The level of this metabolite was also measured at the Cmax of the sublingual and gastric dosing regimens.

patients with ASD = experiment: open-label observational trial, eight weeks, response scored using the ABC-C scale; format: in vivo, human
Method: In an open-label observational trial by an investigator, 11 patients with ASD were treated for eight weeks with molindone starting at 5 mg/day and the dosage increased by the patient and caregiver in 5 mg increments as tolerated by the subjects up to a maximum dose of 25 mg/day or until amelioration of the aberrant behaviors was seen. Patient response was scored using the ABC-C scale.

[2] = N=11, Week 8 vs baseline, p <0.0001

CCc1c(C)[nH]c2c1C(=O)C(CN1CCOCC1)CC2 (stereo not drawn) [molindone, 3-ethyl-2-methyl-5-(morpholin-4-ylmethyl)-1,5,6,7-tetrahydroindol-4-one]
T1/2 ([1]; non-gastric dosing regimen compared to gastric dosing): longer | area under the curve (AUC) ([1]; sublingual dosing compared to gastric dosing): better | Cmax (highest plasma concentration of the drug) ([1]; sublingual dosing compared to gastric dosing, equivalent doses, FIG. 1): higher | body weight during the course of therapy (subjective responses from caregivers and subjects) (patients with ASD; ASD patients, eight weeks): noticeable and desirable weight loss | somnolence during the course of the study (patients with ASD; ASD patients, eight weeks): none complained of increased somnolence | ABC-C Total Score (0-174), Decrease from baseline (%) (patients with ASD; N=11, Week 8 vs baseline, p 0.0001): 69.9% | ABC-C Inappropriate speech (0-12), Decrease from baseline (%) (patients with ASD; N=11, Week 8 vs baseline, p 0.0048): 77% | ABC-C Lethargic/Withdrawn (0-48), Decrease from baseline (%) (patients with ASD; N=11, Week 8 vs baseline, p 0.0069): 63.2% | ABC-C Stereotypy (0-21), Decrease from baseline (%) (patients with ASD; N=11, Week 8 vs baseline, p 0.0081): 72.8% | ABC-C Hyperactivity/Noncompliance (0-48), Decrease from baseline (%) (patients with ASD; [2]): 62.4% | ABC-C Irratability (0-45), Decrease from baseline (%) (patients with ASD; [2]): 76.6% | ABC-C Scale Mean Score, Inappropriate speech (0-12), Week 8 (patients with ASD; N=11 ASD patients, 5 up to 25 mg/day, baseline 9.6, p 0.0048): 2.2 | ABC-C Scale Mean Score, Stereotypy (0-21), Week 8 (patients with ASD; N=11 ASD patients, 5 up to 25 mg/day, baseline 11.8, p 0.0081): 3.2 | ABC-C Scale Mean Score, Lethargic/Withdrawn (0-48), Week 8 (patients with ASD; N=11 ASD patients, 5 up to 25 mg/day, baseline 16.5, p 0.0069): 6.4 | ABC-C Scale Mean Score, Hyperactivity/Noncompliance (0-48), Week 8 (patients with ASD; N=11 ASD patients, 5 up to 25 mg/day, baseline 29.8, p <0.0001): 11.2 | ABC-C Scale Mean Score, Irratability (0-45), Week 8 (patients with ASD; N=11 ASD patients, 5 up to 25 mg/day, baseline 35.6, p <0.0001): 8.3 | ABC-C Scale Mean Score, Total Score (0-174), Week 8 (patients with ASD; N=11 ASD patients, 5 up to 25 mg/day, baseline 103.3, p 0.0001): 31.3 | reduction of symptoms in all five ABC-C categories, including stereotypy (patients with ASD; during the eight-week study, all p values less than 0.05): significant improvement
